“And” between values parts separate entries of the source, which are not always exact repeats. Equal entries are not always repeated.
How the values were obtained:
[1] = Extended drying of Form A2 under vacuum (retention of hydrate water); format: physicochemical; settings: drying for 12 hours at about 80° C. under vacuum
[2] = Water (moisture) content of Form A2 by TGA; format: physicochemical
Method: Thermogravimetric analysis (TGA) was performed with a NETZSCH STA 409C/CD instrument. The term “water content” refers to the content of water based upon the Loss on Drying method as described in Pharmacopeial Forum, Vol. 24, No. 1, page 5438 (January-February 1998). The calculation of water content is based upon the percent of weight that is lost by drying. For Form A2 the term “water content” refers to the content of water based upon a TGA measurement.

Cc1nc2n(c(=O)c1CCN1CCC(c3noc4cc(F)ccc34)CC1)CCCC2O (racemic) [Form A2, (±)-3-[2-[4-(6-fluoro-1,2-benzisoxazol-3-yl)-1-piperidinyl]ethyl]-6,7,8,9-tetrahydro-9-hydroxy-2-methyl-4H-pyrido[1,2-a]pyrimidin-4-one]
removal of moisture on extended drying [1]: moisture could not be removed | water content ([2]; Form A2 obtained by the process, stable and consistently reproducible): 2.5-4 % w/w | Moisture content ([2]; isolated solid after drying under high vacuum at 60-70° C. for about 12 hours): 4 % w/w and 2.7 % w/w

From patent publication US20090061005A1, “Paliperidone Polymorphs” (ACTAVIS GROUP PTC EHF, priority 2007, published 2009)
